Data as given in patent US12685312B2, “Sulfonamide apyrase inhibitors” (Texas Crop Science, Inc., priority 2022, dated 2026).

Tested on: apyrase
Experiment: Screen for apyrase inhibitors (Method 1, in vitro phosphate-release absorbance assay)
Type: biochemical
Conditions: inhibitor conc at 1 mM stock, 1 hr room temperature, absorbance 630 nm; rounded average of two assay results
How it was run: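 Phosphate-release colorimetric assay (Windsor method) in 60 mM Hepes, 3 mM MgCl2, 3 mM CaCl2, 3 mM ATP, pH 6.5, with compound or DMSO control added. Released phosphate developed with ammonium molybdate and ascorbic acid/TCA, then stopped with citrate/acetic acid.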

Compound	% Inhibition of Apyrase [%]
O=C(Nc1cccc(S(=O)(=O)Nc2ccc(Cl)cc2)c1)c1ccc(Cl)nc1 [I-764, 6-chloro-N-(3-(N-(4-chlorophenyl)sulfamoyl)phenyl)nicotinamide]	15
CCOc1ccc(NS(=O)(=O)c2cccc(NC(=O)c3ccncc3)c2)cc1Br [I-765, N-(3-(N-(3-bromo-4-ethoxyphenyl)sulfamoyl)phenyl) isonicotinamide]	15
COc1ccccc1NS(=O)(=O)c1cccc(NC(=O)c2cncc(Br)c2)c1 [I-766, 5-bromo-N-(3-(N-(2-methoxyphenyl)sulfamoyl)phenyl) nicotinamide]	14
Cc1cnc(C(=O)Nc2cccc(S(=O)(=O)N(C)c3ccccc3)c2)cn1 [I-767, 5-methyl-N-(3-(N-methyl-N-phenylsulfamoyl)phenyl)pyrazine-2-carboxamide]	12
CN(c1ccccc1)S(=O)(=O)c1cccc(NC(=O)c2ccncc2)c1 [I-768, N-(3-(N-methyl-N-phenylsulfamoyl)phenyl)isonicotinamide]	7
Cc1cnc(C(=O)Nc2cccc(S(=O)(=O)Nc3cccc(C(F)(F)F)c3)c2)cn1 [I-769, 5-methyl-N-(3-(N-(3-(trifluoromethyl)phenyl)sulfamoyl)phenyl) pyrazine-2-carboxamide]	7
COc1ccccc1NS(=O)(=O)c1cccc(NC(=O)c2cccnc2OC)c1 [I-770, 2-methoxy-N-(3-(N-(2-methoxyphenyl)sulfamoyl)phenyl) nicotinamide]	6
COc1ccc(NS(=O)(=O)c2cccc(NC(=O)c3cccs3)c2)cc1 [I-771, N-(3-(N-(4-methoxyphenyl)sulfamoyl)phenyl)thiophene-2-carboxamide]	6
O=C(Nc1cccc(S(=O)(=O)Nc2ccc(SC(F)F)cc2)c1)c1ccco1 [I-772, N-(3-(N-(4-((difluoromethyl)thio)phenyl)sulfamoyl)phenyl) furan-2-carboxamide]	6
CN(c1ccccc1)S(=O)(=O)c1cccc(NC(=O)c2cc(C3CC3)on2)c1 [I-773, 5-cyclopropyl-N-(3-(N-methyl-N-phenylsulfamoyl)phenyl)isoxazole-3-carboxamide]	3
COc1ccccc1NS(=O)(=O)c1cccc(NC(=O)c2ccc(=O)n(C)n2)c1 [I-774, N-(3-(N-(2-methoxyphenyl)sulfamoyl)phenyl)-1-methyl-6-oxo-1,6-dihydropyridazine-3-carboxamide]	3
O=C(Nc1cccc(S(=O)(=O)Nc2ccc(Cl)cc2)c1)c1cnccn1 [I-775, N-(3-(N-(4-chlorophenyl)sulfamoyl)phenyl)pyrazine-2-carboxamide]	3
O=C(Nc1cccc(S(=O)(=O)Nc2ccccc2F)c1)c1cccs1 [I-776, N-(3-(N-(2-fluorophenyl)sulfamoyl)phenyl)thiophene-2-carboxamide]	1
CN(c1ccccc1)S(=O)(=O)c1ccccc1C(=O)Nc1ccc(Cl)cc1F [I-808, N-(4-chloro-2-fluorophenyl)-2-(N-methyl-N-phenylsulfamoyl)benzamide]	80
CN(c1ccccc1)S(=O)(=O)c1ccccc1C(=O)Nc1ccc2c(c1)OCO2 [I-809, N-(benzo[d][1,3]dioxol-5-yl)-2-(N-methyl-N-phenylsulfamoyl)benzamide]	77
CN(c1ccccc1)S(=O)(=O)c1ccccc1C(=O)N1CCCc2ccccc21 [I-810, N-methyl-N-phenyl-2-(1,2,3,4-tetrahydroquinoline-1-carbonyl)benzenesulfonamide]	75
CN(c1ccccc1)S(=O)(=O)c1ccccc1C(=O)Nc1ccc(C#N)cc1 [I-811, N-(4-cyanophenyl)-2-(N-methyl-N-phenylsulfamoyl)benzamide]	74
O=C1Cc2cccc(NS(=O)(=O)c3ccc(Br)cc3)c2N1 [I-812, 4-bromo-N-(2-oxoindolin-7-yl)benzenesulfonamide]	54
O=C(Nc1cc(Cl)ccc1NS(=O)(=O)c1ccccc1F)c1ccc2c(c1)OCO2 [I-813, N-(5-chloro-2-((2-fluorophenyl)sulfonamido)phenyl)benzo[d][1,3] dioxole-5-carboxamide]	44
CN(c1ccccc1)S(=O)(=O)c1ccccc1C(=O)Nc1cccc(C(N)=O)c1 [I-814, N-(3-carbamoylphenyl)-2-(N-methyl-N-phenylsulfamoyl)benzamide]	39
CN(C(=O)c1ccccc1S(=O)(=O)N(C)c1ccccc1)c1ccccc1 [I-815, N-methyl-2-(N-methyl-N-phenylsulfamoyl)-N-phenylbenzamide]	37
CN(c1ccccc1)S(=O)(=O)c1ccccc1C(=O)Nc1ccc(C(N)=O)cc1 [I-816, N-(4-carbamoylphenyl)-2-(N-methyl-N-phenylsulfamoyl)benzamide]	29

Continued, values first:

% Inhibition of Apyrase [%]	Compound
64	Cc1ccc(C(=O)Nc2ccccc2S(=O)(=O)Nc2ccccc2)cc1F [I-817, 3-fluoro-4-methyl-N-(2-(N-phenylsulfamoyl)phenyl)benzamide]
60	COc1ccc(NS(=O)(=O)c2cc(C)ccc2NC(=O)c2cc(C)oc2C)cc1 [I-818, N-(2-(N-(4-methoxyphenyl)sulfamoyl)-4-methylphenyl)-2,5-dimethylfuran-3-carboxamide]
57	CCOc1ccc(NS(=O)(=O)c2c(C)cccc2NC(=O)c2ccccc2OC)cc1 [I-820, N-(2-(N-(4-ethoxyphenyl)sulfamoyl)-3-methylphenyl)-2-methoxybenzamide]
56	CCOc1ccc(NS(=O)(=O)c2c(C)cccc2NC(=O)c2ccc(Cl)cc2)cc1 [I-821, 4-chloro-N-(2-(N-(4-ethoxyphenyl)sulfamoyl)-3-methylphenyl)benzamide]
54	COc1ccc(NC(=O)c2cccc(S(=O)(=O)N3CC(C)CC(C)C3)c2)c(S(=O)(=O)Nc2ccccc2Cl)c1 (centres unmarked) [I-822, N-(2-(N-(2-chlorophenyl)sulfamoyl)-4-methoxyphenyl)-3-((3,5-dimethylpiperidin-1-yl)sulfonyl)benzamide]
53	Cc1ccc(NC(=O)c2sccc2C)c(S(=O)(=O)Nc2ccc(I)cc2)c1 [I-823, N-(2-(N-(4-iodophenyl)sulfamoyl)-4-methylphenyl)-3-methylthiophene-2-carboxamide]
52	CN(C1CCCCC1)S(=O)(=O)c1ccccc1NC(=O)c1c(F)cccc1F [I-824, N-(2-(N-cyclohexyl-N-methylsulfamoyl)phenyl)-2,6-difluorobenzamide]
48	CCOc1ccc(NS(=O)(=O)c2c(C)cccc2NC(=O)c2ccc(Oc3ccccc3)cc2)cc1 [I-825, N-(2-(N-(4-ethoxyphenyl)sulfamoyl)-3-methylphenyl)-4-phenoxybenzamide]
39	COc1ccc(NS(=O)(=O)c2cc(OC)ccc2NC(=O)c2c(OC)cccc2OC)cc1 [I-827, 2,6-dimethoxy-N-(4-methoxy-2-(N-(4-methoxyphenyl)sulfamoyl)phenyl)benzamide]
65	O=C(Nc1ccccc1NS(=O)(=O)c1cccs1)c1cccc(Cl)c1 [I-828, 3-chloro-N-(2-(thiophene-2-sulfonamido)phenyl)benzamide]
